# Key:
# Rhizoctonia solani = assay: Protection of corn against infestation with Rhizoctonia solani (seed treatment, infested small-parcel fields); assay type: in vivo; conditions: corn seed treated with triticonazole 5 gai/100 kg alone; seedlings surviving (from 50) after sowing and emergence; untreated control 46
# Description: An isolate of Rhizoctonia solani originally isolated from maize was grown on potatoe dextrose agar (PDA) at 20° C. in the dark for 14 days. A vermiculite/maize meal/distilled water mixture (2.7:1:1) was autoclaved at 121° C. for 30 minutes in poly-ethylene “autoclave” bags. Once cool, the mixture was inoculated with 40×5 mm^2 agar disks cut from the Rhizoctonia solani cultures and mixed well. The inoculum bags were sealed and then incubated for 14 days at 22° C. with 16 hours light and 8 hours dark periods. Successful growth was checked by extracting granules of vermiculate and plating on PDA. Infested soil was prepared by mixing peat: sharp washed sand (3:1), removing any large peat clumps, adding maize meal mixture (9:1) and combining the two wells.
# (§1) Corn seed was either treated with a slurry comprising triticonazole and/or prochloraz in water so that the amounts indicated below were applied per 100 kg of seed, or left untreated (control). Small-parcel fields (1×2 m) were infested with Rhizoctonia solani as described above. After sowing and emergence the number of seedlings surviving (from 50) was determined.
# Pythium ultimum = assay: Protection of corn against infestation with Pythium ultimum (seed treatment, infested small-parcel fields); assay type: in vivo; conditions: corn seed treated with triticonazole 5 gai/100 kg alone; based on a weighted 0-5 infection scale; untreated control 70
# Description: An isolate of Pythium ultimum originally isolated from maize was grown on potatoe dex-trose agar (PDA) at 22° C. in the dark for 14 days. A vermiculate/maize meal/distilled water mixture (2.7:1:1) was autoclaved at 121° C. for 30 minutes in polyethylene “auto-clave” bags. Once cool, the mixture was inoculated with 40×5 mm^2 agar disks cut from the Pyhtium ultimum cultures and mixed well. The inoculum bags were sealed and then incubated for 14 days at 21° C. for 14 days in the dark. Successful growth was checked by extracting granules of vermiculate and plating on PDA. Infested soil was prepared by mixing peat: sharp washed sand (3:1) removing any large peat clumps, adding maize meal mixture (40:60 v/v) and combining the two well.
# as §1, with “Pythium ultimum” for “Rhizoctonia solani”, “the” for “the number of”, “the disease index (based on a weighted 0-5 infection scale)” for “surviving (from 50)”
smiles,measurement,setting,value
"CC1(C)CC/C(=C\c2ccc(Cl)cc2)C1(O)Cn1cncn1 (centres unmarked) [Triticonazole, (E)-5-(4-chlorbenzyliden)-2,2-dimethyl-1-(1H-1,2,4-triazol-1-ylmethyl)cyclopentanol]",Percentage of plants surviving,Rhizoctonia solani,36%
same,Disease index,Pythium ultimum,71%
